The source of these data is patent US5721211A, “Compositions and methods for treating small cell and nonsmall cell lung cancers” (The George Washington University, priority 1993, dated 1998).

Data set [1] has as its system lung cancer cells or plasma membranes derived therefrom. The experiment in a line: direct binding of labeled thymosin to lung cancer cells or plasma membranes. As to conditions: 125I-Tyr labeled ligand. The text has this:
Direct, i.e., noncompetitive, binding of a labeled ligand to intact cells or plasma membranes may be determined. […] These and other experiments not detailed here indicate that the thymosins may not have specific receptors. Palaszynski, E., Biochemical Studies on Thymosin α1, Ph.D. Thesis, George Washington University, Washington, D.C., 1981. It is thus all the more suprising and unexpected that certain thymosins have such profound inhibitory effects on the binding of VIP to its specific receptors and on the growth promoting effects of VIP in lung cancer cells.

The test system of data set [2] is NCI-H1299 lung cancer cells. Description: 3H-arachidonic acid (AA) release. The data set is classed as cell-based. The note with it: 1 μM; 4 determinations. How it is done: In a procedure substantially as set forth in Moody et al. (1993) supra, NCI-H1299 lung cancer cells were loaded with ^3 H-AA overnight, and after removal of free ^3 H-AA cells, were treated with increasing concentrations of THNα1(1-16)amide (Δ), THNα1 (.largecircle.) and THNα1amide (.box-solid.) (produced as described above). The mean value ± S.E. of 4 determinations is indicated; *,p<0.05; ** p<0.01.

For data set [3], the system named is NCI-H510 lung cancer cells. The experiment in a line: NCI-H510 growth in vivo. The note with it: 10 μg s.c. daily, week 4, mean of 3 tumors. The arrangement: species or system nude mice. How it is done: In a procedure substantially as set forth in Moody et al. (1993) supra, NCI-H510 lung cancer cells were injected into nude mice, and tumors formed after one week. The compounds listed in Table V below (produced as described above) were injected (100 microliters) subcutaneously daily. Tumors were measured at week 4.

Data set [4] concerns tumors of both SCLC and NSCLC types of lung cancer cells. The arrangement: species or system nude mice. The note with it: mouse, in vivo.
Data set [5] relates to NCI-N417 (SCLC lung cancer cells). The experiment in a line: soft agar colonization, NCI-N417. The data set is classed as cell-based. As to conditions: 1 μM; for (SCLC) N417 colonies: colonies greater than 50 μm, mean ± S.E. of 3. The procedure:
(§1) The effects of THNα1 on the growth of lung cancer cell lines was studied. Single viable cells were plated in soft agar as previously described (Mahmoud, S., et al., Life Sci., 44:367 (1989)), and, after two weeks, the colonies were stained with 0.1% p-iodonitrotetrazolium violet.
(§2) The experimental conditions of Example 3 were repeated with NCI-H720 (lung carcinoid cancer cells) and NCI-N417 (SCLC lung cancer cells) cell lines. Colonies were counted as before.

The subject of data set [6] is lung cancer cells. Description: in vitro colonization of lung cancer cells (general statement). The data set is classed as cell-based. The procedure: Candidate anti-lung cancer peptides and antibodies may be screened in vitro in a soft agar colonization assay such as that described by Mahmoud, S., et al., Life Sci., 44:367 (1989) which is herein incorporated by reference. In general, single viable lung cancer cells are plated in soft agar. After an appropriate growth period, such as 14 days, cell colonies may be stained with an appropriate cytochemical stain, and the stained cells viewed microscopically. Cytochemical stains are well known to those skilled in the art of histology.

The test system of data set [7] is NCI-H720 (lung carcinoid cancer cells). Description: soft agar colonization, NCI-H720. It is filed as cell-based. The note with it: 1 μM; for NCI-H720 (carcinoid) colonies: colonies greater than 50 μm, mean ± S.E. of 3. The procedure: as §1, §2

Ends that are not written are not given here.

On to “(^125 I-Tyr)-labeled THNα1: 125I-Tyr labeled THNα1 used for direct binding analyses (SDAAVDTSSEITTKDLKEKKEVVEEAEN; ends and bridges not checked; also: 125I-Tyr label, place not given here; UniProt P06454 2-29, looked up)”, for which, in data set [1], the “direct (noncompetitive) binding affinity” value is on record as “bind with poor affinity”.

With “Ac-SDAAVDTSSEITTKDL-NH2 [THNα1-N16 (1-16) amide, Ac-Ser-Asp-Ala-Ala-Val-Asp-Thr-Ser-Ser-Glu-Ile-Thr-Thr-Lys-Asp- Leu-NH2]”, the 3H-AA release result in data set [2] is on record as “significantly stimulate”. For the same substance, the Tumor volume in data set [3] is recorded as 410 mm^3; in data set [3] (listed as THNα1-N16 (1-16)amide), “strongly inhibit”.

As to “Ac-SDAAVDTSSEITTKDLKEKKEVVEEAEN [THNα1, thymosin α1]”, the toxic side effects entry in data set [4] is “No toxic side effects were observed”.

Consider “thymosin β4 (SDKPDMAEIEKFDKSKLKKTETQEKNPLPSKETIEQEKQAGES; Thymosin beta-4; UniProt P62328 2-44, looked up) [THN β4, a 43-amino acid peptide, MW 4982]”, for which, in data set [5], the “N/No, N417” value is given as 1.20 and the “(SCLC) N417 colonies” value is 240 ± 68. The “(SCLC) N417 colonies” value in data set [5] (listed as THNβ4) is reported as “did not influence colony number significantly”. Also, in data set [6], the “colony formation of lung cancer cells in vitro” value is reported as “little effect”. In addition, in data set [7], the “N/No, NCI-H720” value amounted to 0.93 and the “NCI-H720 (carcinoid) colonies” value was found to be 68 ± 20. Also, in data set [7] (listed as THNβ4), the “NCI-H720 (carcinoid) colonies” value is “did not influence colony number significantly”.
